Assay results from ChEMBL document CHEMBL6092186, “Semisynthetic Ecdysteroid Cinnamate Esters and tert-Butyl Oxime Ether Derivatives with Trypanocidal Activity” (J Nat Prod, 2024).
Activity calls are given as the source filed them. No cut-off for these calls is given here.

How the values were obtained:
Trypanosoma cruzi [1] = experiment: Anti-trypanosomal activity against Trypanosoma cruzi epimastigotes assessed as inhibition of parasitic proliferation at 5 uM incubated for 72 hrs by XTT assay relative to control; type: functional
CHO = experiment: Cytotoxicity against CHO cells at 5 uM incubated for 72 hrs by MTT assay; type: toxicity, cell-based, Cricetulus griseus; details: chinese hamster
Trypanosoma cruzi [2] = experiment: Trypanocidal activity against Trypanosoma cruzi epimastigotes incubated for 24 hrs by Neubauer chamber method; type: functional, organism-based
Trypanosoma = experiment: Anti-trypanosomal activity against Trypanosoma; type: functional, organism-based

CC(C)(O)CC[C@@H](OC(=O)/C=C/c1ccccc1)[C@](C)(O)[C@H]1CC=C2C3=C/C(=N\OC(C)(C)C)[C@@H]4C[C@@H](O)[C@@H](OC(=O)/C=C/c5ccccc5)C[C@]4(C)[C@H]3CC[C@@]21C
inhibition at 5 µM (Trypanosoma cruzi [1]): ≥ 30%

CC(C)(O)CC[C@@H](O)[C@](C)(O)[C@H]1CC=C2C3=C/C(=N/OC(C)(C)C)[C@@H]4C[C@@H](O)[C@@H](OC(=O)/C=C/c5ccccc5)C[C@]4(C)[C@H]3CC[C@@]21C
inhibition at 5 µM (Trypanosoma cruzi [1]): ≥ 30%

CC(C)(O)CC[C@@H](OC(=O)/C=C/c1ccccc1)[C@](C)(O)[C@H]1CC[C@@]2(O)C3=CC(=O)[C@@H]4C[C@@H](OC(=O)/C=C/c5ccccc5)[C@@H](O)C[C@]4(C)[C@H]3CC[C@]12C
Activity (CHO): Non-toxic

CC(C)(O)CC[C@@H](O)[C@](C)(O)[C@H]1CC=C2C3=C/C(=N\OC(C)(C)C)[C@@H]4C[C@@H](O)[C@@H](O)C[C@]4(C)[C@H]3CC[C@@]21C
inhibition (Trypanosoma cruzi [1]): inactive

CCCCCOC(=O)/C=C/c1ccc(O)cc1
IC50 (Trypanosoma cruzi [2]): ~5 µM

CC(C)(O)CC[C@@H](O)[C@](C)(O)[C@H]1CC=C2C3=C/C(=N/OC(C)(C)C)[C@@H]4C[C@@H](O)[C@@H](O)C[C@]4(C)[C@H]3CC[C@@]21C
inhibition (Trypanosoma cruzi [1]): inactive

CC(C)(O)CC[C@H]1OC(C)(C)O[C@]1(C)[C@H]1CC[C@@]2(O)C3=C/C(=N\OC(C)(C)C)[C@@H]4C[C@H]5OC(C)(C)O[C@H]5C[C@]4(C)[C@H]3CC[C@]12C
Activity (CHO): Non-toxic

CC(C)(O)CC[C@@H](OC(=O)/C=C/c1ccccc1)[C@](C)(O)[C@H]1CC[C@@]2(O)C3=CC(=O)[C@@H]4C[C@@H](O)[C@@H](OC(=O)/C=C/c5ccccc5)C[C@]4(C)[C@H]3CC[C@]12C
Activity (CHO): Non-toxic

COc1ccc(/C=C/C(=O)O)cc1 [4-METHOXYCINNAMIC ACID]
IC50 (Trypanosoma): > 600 µM

CC(C)(O)CC[C@H]1OC(C)(C)O[C@]1(C)[C@H]1CC=C2C3=C/C(=N/OC(C)(C)C)[C@@H]4C[C@H]5OC(C)(C)O[C@H]5C[C@]4(C)[C@H]3CC[C@@]21C
Activity (CHO): Non-toxic

COc1cc(/C=C/C(=O)O)cc(OC)c1OC [SINAPIC ACID METHYL ETHER]
IC50 (Trypanosoma): > 600 µM

COc1ccc(/C=C/C(=O)O)c(OC)c1
IC50 (Trypanosoma): > 600 µM

CC(C)(O)CC[C@@H](OC(=O)/C=C/c1ccccc1)[C@](C)(O)[C@H]1CC=C2C3=C/C(=N\OC(C)(C)C)[C@@H]4C[C@@H](OC(=O)/C=C/c5ccccc5)[C@@H](OC(=O)/C=C/c5ccccc5)C[C@]4(C)[C@H]3CC[C@@]21C
inhibition at 5 µM (Trypanosoma cruzi [1]): ≥ 30%

CC(C)(O)CC[C@@H](O)[C@](C)(O)[C@H]1CC=C2C3=C/C(=N\OC(C)(C)C)[C@@H]4C[C@@H](O)[C@@H](OC(=O)/C=C/c5ccccc5)C[C@]4(C)[C@H]3CC[C@@]21C
inhibition at 5 µM (Trypanosoma cruzi [1]): ≥ 30%
